# Test results published in ChEMBL document CHEMBL3885881, “DrugMatrix”.
# Species: Rattus norvegicus
# Assay: DrugMatrix - Regimen: Daily Repeat
# Format: toxicity, organism-based, Sprague-Dawley
# Design: regimen Daily Repeat, gender Male, age 6-8 weeks
# Conditions: in vivo, po, route oral GAVAGE, […]; for ABSOLUTE BASOPHIL / ABSOLUTE EOSINOPHIL / ABSOLUTE LYMPHOCYTE / ABSOLUTE MONOCYTE / ABSOLUTE SEGMENTED NEUTROPHIL / BASOPHIL / EOSINOPHIL / ERYTHROCYTE COUNT / HEMATOCRIT / HEMOGLOBIN / LEUKOCYTE COUNT / LYMPHOCYTE / MEAN CORPUSCULAR HEMOGLOBIN / MEAN CORPUSCULAR HEMOGLOBIN CONCENTRATION / MEAN CORPUSCULAR VOLUME / MONOCYTE / NEUTROPHIL / NUCLEATED RED BLOOD CELLS / PLATELET COUNT: tissue Blood; for ALANINE AMINOTRANSFERASE / ALKALINE PHOSPHATASE / ASPARTATE AMINOTRANSFERASE / BLOOD UREA NITROGEN / CARBON DIOXIDE / CHLORIDE / CHOLESTEROL / CREATINE PHOSPHOKINASE / CREATININE / GLUCOSE / LACTATE DEHYDROGENASE / LIPASE / PHOSPHORUS / POTASSIUM / SODIUM / TOTAL BILIRUBIN / TOTAL PROTEIN / URIC ACID: tissue Plasma
# [1] = 36 mg/kg, 120 h, dose level Low, time 5 day
# [2] = 386 mg/kg, 72 h, dose level High, time 3 day
# [3] = 386 mg/kg, 120 h, dose level High, time 5 day
smiles,measurement,setting,value
c1ccc2c(c1)Nc1ccccc1S2 [PHENOTHIAZINE],ABSOLUTE BASOPHIL,[1],0 CELLS/uL
same,ABSOLUTE EOSINOPHIL,[1],85 CELLS/uL
same,ABSOLUTE LYMPHOCYTE,[1],7942.67 CELLS/uL
same,ABSOLUTE MONOCYTE,[1],54.67 CELLS/uL
same,ABSOLUTE SEGMENTED NEUTROPHIL,[1],984.33 CELLS/uL
same,BASOPHIL,[1],0%
same,EOSINOPHIL,[1],1%
same,ERYTHROCYTE COUNT,[1],5.36 x10E6/uL
same,HEMATOCRIT,[1],33.6%
same,HEMOGLOBIN,[1],13.03 G/DL
same,LEUKOCYTE COUNT,[1],9.07 x10E3/uL
same,LYMPHOCYTE,[1],87.67%
same,MEAN CORPUSCULAR HEMOGLOBIN,[1],24.33 pg
same,MEAN CORPUSCULAR HEMOGLOBIN CONCENTRATION,[1],38.8 G/DL
same,MEAN CORPUSCULAR VOLUME,[1],62.63 fL
same,MONOCYTE,[1],0.67%
same,NEUTROPHIL,[1],10.67%
same,NUCLEATED RED BLOOD CELLS,[1],0 /100WBC
same,PLATELET COUNT,[1],1083 x10E3/uL
same,ALANINE AMINOTRANSFERASE,[1],54.67 u/L
same,ALKALINE PHOSPHATASE,[1],331 u/L
same,ASPARTATE AMINOTRANSFERASE,[1],95.67 u/L
same,BLOOD UREA NITROGEN,[1],13.33 mg/dL
same,CARBON DIOXIDE,[1],27 mmol/L
same,CHLORIDE,[1],101.67 MEQ/L
same,CHOLESTEROL,[1],59.67 mg/dL
same,CREATINE PHOSPHOKINASE,[1],568.67 u/L
same,CREATININE,[1],0.17 mg/dL
same,GLUCOSE,[1],162.33 mg/dL
same,LACTATE DEHYDROGENASE,[1],99.67 u/L
same,LIPASE,[1],10.33 u/L
same,PHOSPHORUS,[1],9.13 mg/dL
same,POTASSIUM,[1],5.69 MEQ/L
same,SODIUM,[1],147.3 MEQ/L
same,TOTAL BILIRUBIN,[1],0.2 mg/dL
same,TOTAL PROTEIN,[1],5.73 G/DL
same,URIC ACID,[1],0.57 mg/dL
same,ABSOLUTE BASOPHIL,[2],0 CELLS/uL
same,ABSOLUTE EOSINOPHIL,[2],0 CELLS/uL
same,ABSOLUTE LYMPHOCYTE,[2],9449.33 CELLS/uL
same,ABSOLUTE MONOCYTE,[2],225 CELLS/uL
same,ABSOLUTE SEGMENTED NEUTROPHIL,[2],1559 CELLS/uL
same,BASOPHIL,[2],0%
same,EOSINOPHIL,[2],0%
same,ERYTHROCYTE COUNT,[2],6.26 x10E6/uL
same,HEMATOCRIT,[2],38.97%
same,HEMOGLOBIN,[2],14.93 G/DL
same,LEUKOCYTE COUNT,[2],11.23 x10E3/uL
same,LYMPHOCYTE,[2],84.67%
same,MEAN CORPUSCULAR HEMOGLOBIN,[2],23.83 pg
same,MEAN CORPUSCULAR HEMOGLOBIN CONCENTRATION,[2],38.3 G/DL
same,MEAN CORPUSCULAR VOLUME,[2],62.3 fL
same,MONOCYTE,[2],2%
same,NEUTROPHIL,[2],13.33%
same,NUCLEATED RED BLOOD CELLS,[2],0 /100WBC
same,PLATELET COUNT,[2],976.33 x10E3/uL
same,ALANINE AMINOTRANSFERASE,[2],78.33 u/L
same,ALKALINE PHOSPHATASE,[2],354.33 u/L
same,ASPARTATE AMINOTRANSFERASE,[2],109.33 u/L
same,BLOOD UREA NITROGEN,[2],12.67 mg/dL
same,CARBON DIOXIDE,[2],29.67 mmol/L
same,CHLORIDE,[2],97 MEQ/L
same,CHOLESTEROL,[2],128 mg/dL
same,CREATINE PHOSPHOKINASE,[2],511 u/L
same,CREATININE,[2],0.21 mg/dL
same,GLUCOSE,[2],125 mg/dL
same,LACTATE DEHYDROGENASE,[2],138.67 u/L
same,LIPASE,[2],40.67 u/L
same,PHOSPHORUS,[2],7.87 mg/dL
same,POTASSIUM,[2],5.77 MEQ/L
same,SODIUM,[2],142 MEQ/L
same,TOTAL BILIRUBIN,[2],0.7 mg/dL
same,TOTAL PROTEIN,[2],5.53 G/DL
same,URIC ACID,[2],0.6 mg/dL
same,ABSOLUTE BASOPHIL,[3],0 CELLS/uL
same,ABSOLUTE EOSINOPHIL,[3],0 CELLS/uL
same,ABSOLUTE LYMPHOCYTE,[3],8085.67 CELLS/uL
same,ABSOLUTE MONOCYTE,[3],101 CELLS/uL
same,ABSOLUTE SEGMENTED NEUTROPHIL,[3],1546.67 CELLS/uL
same,BASOPHIL,[3],0%
same,EOSINOPHIL,[3],0%
same,ERYTHROCYTE COUNT,[3],5 x10E6/uL
same,HEMATOCRIT,[3],31.27%
same,HEMOGLOBIN,[3],12.03 G/DL
same,LEUKOCYTE COUNT,[3],9.73 x10E3/uL
same,LYMPHOCYTE,[3],82.67%
same,MEAN CORPUSCULAR HEMOGLOBIN,[3],24.07 pg
same,MEAN CORPUSCULAR HEMOGLOBIN CONCENTRATION,[3],38.53 G/DL
same,MEAN CORPUSCULAR VOLUME,[3],62.43 fL
same,MONOCYTE,[3],1%
same,NEUTROPHIL,[3],16.33%
same,NUCLEATED RED BLOOD CELLS,[3],0 /100WBC
same,PLATELET COUNT,[3],1551.67 x10E3/uL
same,ALANINE AMINOTRANSFERASE,[3],64.67 u/L
same,ALKALINE PHOSPHATASE,[3],210.67 u/L
same,ASPARTATE AMINOTRANSFERASE,[3],87.67 u/L
same,BLOOD UREA NITROGEN,[3],15.33 mg/dL
same,CARBON DIOXIDE,[3],27.67 mmol/L
same,CHLORIDE,[3],101 MEQ/L
same,CHOLESTEROL,[3],108.33 mg/dL
same,CREATINE PHOSPHOKINASE,[3],236 u/L
same,CREATININE,[3],0.23 mg/dL
same,GLUCOSE,[3],135 mg/dL
same,LACTATE DEHYDROGENASE,[3],68.67 u/L
same,LIPASE,[3],11.33 u/L
same,PHOSPHORUS,[3],9.1 mg/dL
same,POTASSIUM,[3],5.66 MEQ/L
same,SODIUM,[3],145.9 MEQ/L
same,TOTAL BILIRUBIN,[3],0.33 mg/dL
same,TOTAL PROTEIN,[3],5.3 G/DL
same,URIC ACID,[3],0.77 mg/dL
